Marks after values point to notes of the source that are not given here. Each block holds one compound with its values, some of them ahead of it.
Key:
[1] = cited from earlier work; for Variation of plasma concentration during a 12-h period: after a 150-mg dose of dabrafenib at steady state (day 15)
[2] = LC-MS/MS measurement of dabrafenib and metabolites in patient plasma at steady state; assay type: in vivo, human; settings: for Plasma concentration in typical patient sample: Fig. 3, single patient sample; for Diff (difference between the highest and lowest concentrations) / Median C (plasma concentration) / Range of plasma concentration: patient plasma, steady state, dabrafenib 150 mg BID orally
Protocol: Seven blood samples were obtained between 14 and 17 h after last dose from four different patients with disseminated melanoma after 1, 2, or 3 months of treatment with dabrafenib at the full recommended dose of 150 mg BID orally. […] Plasma was collected after centrifugation, immediately frozen, and stored at −80 °C until analysis. The study protocol was approved by the Ethical Review Board in Stockholm (DNR 2011/1980-31/1) and written informed consent was obtained from patients prior to study entry. Drug-free ethylenediaminetetraacetic acid (EDTA) plasma was donated from six volunteers (three males and three females) with an average age of 26 (22–30) years.
Fifty microliters aliquots of plasma was thawed and precipitated with 200 μL of internal standard mixture containing erlotinib-d6 (200 ng/mL) in acetonitrile. Following vortex mixing, the samples were centrifuged (17530 RCF, 5 min, 4 °C). The supernatant (150 μL) was mixed with 150 μL water and transferred to a 0.7-mL 96-well plate.
Calibration standards for dabrafenib were prepared at seven levels in the concentration range 5–5000 ng/mL (5-15-60-250-1000-3750-5000) by diluting the corresponding working stock solutions 1:10 with drug-free plasma. The upper limit of quantification (ULOQ) was selected based on the highest expected dabrafenib concentration, and the lower limit of quantification (LLOQ) was selected based on observed carry-over from the ULOQ. LOD was not determined as LLOQ was limited by the carry-over. QC samples were prepared separately from the calibration standards at four levels (LLOQ-low-medium-high, 5-15-250-3750 ng/ml).
Due to the lack of reference materials, the six metabolites were semi-quantitatively determined using the calibration curve for dabrafenib. The bias caused by, among other things, differences in recovery and ionization efficiency was not corrected for. This bias is indicated by the addition of an asterisk to the units of metabolite concentrations.

[3] = Clinical pharmacokinetics of dabrafenib (literature); assay type: in vivo, human; settings: plasma
[4] = Stability of dabrafenib in spiked whole blood, plasma and processed samples; assay type: in vitro ADME, human; settings: 72 h 4°C
[5] = as above; assay type: in vitro ADME, human; settings: for Concentration relative to nominal concentration (Rel): long term, −80 °C for 16 months
Protocol: Stability was evaluated at the low and high QC levels. Processed sample stability by re-injection of calibration and QC samples after 24 h at 5 °C. Freeze-thaw stability (n = 3) was determined for three freeze-thaw cycles at −80 °C. Short-term stability of dabrafenib was investigated in whole blood and plasma using spiked drug-free plasma (n = 2) stored at room temperature or 5 °C for 0, 24, 48, and 72 h, respectively. Long-term stability of dabrafenib (QC low, QC middle, and QC high; n = 3) was determined for a sample stored at −80 °C for 16 months. Accuracy within ±15% of the nominal value was required to consider dabrafenib stable under all conditions.

[6] = set-up: method as in PMID 22735384; settings: phase III trial; cited from earlier work
BRAFV600E = test system: BRAFV600E; set-up: method as in earlier work; settings: cited from earlier work
[7] = semi-quantification based on the calibration curve of dabrafenib
[8] = 14-17 h after last dose, semi-quantification based on the calibration curve of dabrafenib

Plasma concentration in typical patient sample [2, 7]: 400 ng/mL | Diff (difference between the highest and lowest concentrations) [2]: 3-fold | Median C (plasma concentration) [2, 8]: 450^a ng/ml | Range of plasma concentration [2, 7]: (230–690) ng/ml | Concentration reported by Falchook et al. relative to this study (fold higher) [3]: 8 fold
Structure (SMILES): CC(C)(C(=O)O)c1nc(-c2cccc(NS(=O)(=O)c3c(F)cccc3F)c2F)c(-c2ccnc(N)n2)s1 [Carboxy-Dab, carboxy-dabrafenib]
Variation of plasma concentration during a 12-h period [1]: around 1.5 fold

Concentration relative to initial sample concentration (Rel) ([4]; plasma, Low QC): 109% | Concentration relative to initial sample concentration (Rel) ([4]; whole blood, High QC): 99% | Concentration relative to initial sample concentration (Rel) ([4]; whole blood, Low QC): 99% | Plasma concentration in lowest patient sample ([2]; Fig. 2): 75 ng/mL | Plasma concentration in typical patient sample ([2]; quantitative): 1400 ng/mL | Diff (difference between the highest and lowest concentrations) [2]: 19-fold | Median C (plasma concentration) ([2]; 14-17 h after last dose, 7 samples from 4 patients, quantitative): 400 ng/mL | Range of plasma concentration ([2]; 14-17 h after last dose, quantitative): (75–1400) ng/ml | Long-term stability in plasma ([5]; 16 months of storage at −80 °C): stable | Stability of processed samples ([5]; 24 h at 5 °C, stable = accuracy within ±15% of nominal): stable | Short-term stability in whole blood or plasma ([5]; 72 h at room temperature and at 5 °C, stable = accuracy within ±15% of nominal): stable | Concentration relative to initial sample concentration (Rel) ([5]; plasma, High QC, 72 h 4°C): 106% | Concentration relative to initial sample concentration (Rel) ([5]; plasma, High QC, 72 h RT): 101% | Concentration relative to nominal concentration (Rel) ([5]; plasma, High QC): 106% | Concentration relative to initial sample concentration (Rel) ([5]; plasma, High QC, three freeze-thaw cycles at −80 °C): 96% | Concentration relative to initial sample concentration (Rel) ([5]; plasma, Low QC, 72 h RT): 98% | Concentration relative to nominal concentration (Rel) ([5]; plasma, Low QC): 101% | Concentration relative to initial sample concentration (Rel) ([5]; plasma, Low QC, three freeze-thaw cycles at −80 °C): 98% | Concentration relative to initial sample concentration (Rel) ([5]; processed sample, High QC, 24 h 5°C): 89% | Concentration relative to initial sample concentration (Rel) ([5]; processed sample, Low QC, 24 h 5°C): 87% | Freeze-thaw stability in plasma ([5]; three freeze-thaw cycles): stable | Concentration relative to initial sample concentration (Rel) ([5]; whole blood, High QC, 72 h RT): 95% | Concentration relative to initial sample concentration (Rel) ([5]; whole blood, Low QC, 72 h RT): 94%
Structure (SMILES): CC(C)(C)c1nc(-c2cccc(NS(=O)(=O)c3c(F)cccc3F)c2F)c(-c2ccnc(N)n2)s1 [Dabrafenib]
Variation of plasma concentration during a 12-h period [1]: 16 fold | Inter-patient coefficient of variation (CV) in maximum concentration at steady state [1]: 73% | Half-life ([1]; patients): 4.8 h | Patients with adverse events of grade 2 or greater [6]: 53%

Structure (SMILES): CC(C)c1nc(-c2cccc(NS(=O)(=O)c3c(F)cccc3F)c2F)c(-c2ccnc(N)n2)s1 [Desmethyl-Dab, desmethyl-dabrafenib]
Variation of plasma concentration during a 12-h period [1]: around 1.5 fold | Plasma concentration in typical patient sample [2, 7]: 660 ng/mL | Diff (difference between the highest and lowest concentrations) [2]: 4-fold | Median C (plasma concentration) [2, 8]: 400^a ng/ml | Range of plasma concentration [2, 7]: (170–660) ng/ml | IC50 relative to dabrafenib (fold higher) (BRAFV600E): ~2 fold

Plasma concentration in typical patient sample [2, 7]: 32 ng/mL | Diff (difference between the highest and lowest concentrations) [2]: 3-fold | Median C (plasma concentration) [2, 8]: 38^a ng/ml | Range of plasma concentration [2, 7]: (22–65)^b ng/ml
Structure (SMILES): C=C(COC1OC(C(=O)O)C(O)C(O)C1O)c1nc(-c2cccc(NS(=O)(=O)c3c(F)cccc3F)c2F)c(-c2ccnc(N)n2)s1 (stereo not drawn) [Gluc met]

Structure (SMILES): CC(C)(CO)c1nc(-c2cccc(NS(=O)(=O)c3c(F)cccc3F)c2F)c(-c2ccnc(N)n2)s1 [Hydroxy-Dab, hydroxy-dabrafenib]
Variation of plasma concentration during a 12-h period [1]: 7 fold | Plasma concentration in typical patient sample [2, 7]: 280 ng/mL | Diff (difference between the highest and lowest concentrations) [2]: 15-fold | Median C (plasma concentration) [2, 8]: 74^a ng/ml | Range of plasma concentration [2, 7]: (19–278) ng/ml | IC50 relative to dabrafenib (fold higher) (BRAFV600E): approximately 3 fold

Plasma concentration in typical patient sample [2, 7]: 550 ng/mL | Diff (difference between the highest and lowest concentrations) [2]: 4-fold | Median C (plasma concentration) [2, 8]: 400^a ng/ml | Range of plasma concentration [2, 7]: (160–590) ng/ml
Structure (SMILES): C=C(C)c1nc(-c2cccc(NS(=O)(=O)c3c(F)cccc3F)c2F)c(-c2ccnc(N)n2)s1 [M31]

Structure (SMILES): CCCS(=O)(=O)Nc1ccc(F)c(C(=O)c2c[nH]c3ncc(-c4ccc(Cl)cc4)cc23)c1F [vemurafenib]
Inter-patient variability [1]: 30–60%

— paper PMC5427163, “Simple and cost-effective liquid chromatography-mass spectrometry method to measure dabrafenib quantitatively and six metabolites semi-quantitatively in human plasma” (Analytical and Bioanalytical Chemistry, 2017)
